# From patent US11207291B2, “Antimicrobial compositions comprising cannabinoids and methods of using the same” (Graphium Biosciences, Inc., priority 2017, dated 2021)
# Assays:
# Aspergillus fumigatus [1] = assay: Broth microdilution MIC, fungi (Example 4); type: cell-based; conditions: Aspergillus fumigatus
# Bifidobacterium bifidum = assay: Broth microdilution MIC, anaerobic bacteria (Example 1); type: cell-based; conditions: Bifidobacterium bifidum
# Bifidobacterium longum [2] = assay: Broth microdilution MIC, anaerobic bacteria (Example 4); type: cell-based; conditions: isolate MMX 3968
# Escherichia coli [3] = assay: Broth microdilution MIC, aerobic bacteria (Example 1); type: cell-based; conditions: Escherichia coli, ATCC25922, isolate MMX 102 (ATCC 25922), read-out: MIC
# C. difficile = assay: MIC/MBC testing (Example 5); type: cell-based; conditions: for MBC:MIC: ratios of 1-4 are indicative of bactericidal activity; for MBC / MIC: Clostridioides difficile
# Escherichia coli [4] = assay: Broth microdilution MIC, aerobic bacteria (Example 4); type: cell-based; conditions: ATCC25922
# Lactobacillus jensenii = assay: Broth microdilution MIC, anaerobic bacteria (Example 4); type: cell-based; conditions: isolate MMX 4149
# Lactobacillus crispatus = assay: Broth microdilution MIC, anaerobic bacteria (Example 1); type: cell-based; conditions: Lactobacillus crispatus
# B. fragilis ATCC 25285 = assay: MIC/MBC testing (Example 5); type: cell-based; conditions: Bacteroides fragilis, ATCC25285
# [5] = test system: Staphylococcus aureus (MRSA); assay: microbe, parasite or virus in culture; type: cell-based
# Acinetobacter baumannii = assay: Broth microdilution MIC, aerobic bacteria (Example 1); type: cell-based
# [6] = test system: evaluated yeast and fungal isolates; assay: Broth microdilution MIC, text summary (Example 1); type: cell-based
# E. faecalis ATCC 29212 = assay: MIC/MBC testing (Example 5); type: cell-based
# Bifidobacterium longum [7] = assay: Broth microdilution MIC, anaerobic bacteria (Example 1); type: cell-based; conditions: Bifidobacterium longum
# gram-negative aerobes = assay: Broth microdilution MIC, text summary (Example 1); type: cell-based
# Bacteroides fragilis = assay: Broth microdilution MIC, anaerobic bacteria (Example 1); type: cell-based; conditions: Bacteroides fragilis
# E. faecalis MMX 848 = assay: MIC/MBC testing (Example 5); type: cell-based
# Clostridium difficile = assay: Broth microdilution MIC, anaerobic bacteria (Example 4); type: cell-based; conditions: Clostridioides difficile
# Streptococcus pneumoniae [8] = assay: Broth microdilution MIC, aerobic bacteria (Example 1); type: cell-based; conditions: Streptococcus pneumoniae
# E. coli ATCC 25922 = assay: MIC/MBC testing (Example 5); type: cell-based; conditions: Escherichia coli, ATCC25922
# Pseudomonas aeruginosa [9] = assay: Broth microdilution MIC, aerobic bacteria (Example 4); type: cell-based
# [10] = Compound precipitation in uninoculated solubility controls (Example 4); type: physicochemical
# Procedure: Un-inoculated solubility control plates for each test media and drug were incubated in parallel with test plates and observed for evidence of drug precipitation. MICs were read where visible growth of the organism was inhibited.
# Aspergillus fumigatus [11] = assay: Broth microdilution MIC, yeast and fungi (Example 1); type: cell-based; conditions: Aspergillus fumigatus, isolate MMX 5280 (ATCC MYA-3626)
# Anaerobic Bacteria = assay: Broth microdilution MIC, text summary (Example 1); type: cell-based
# B. longum MMX 3968 = assay: MIC/MBC testing (Example 5); type: cell-based
# Streptococcus pneumoniae [12] = assay: Broth microdilution MIC, aerobic bacteria (Example 4); type: cell-based; conditions: ATCC49619
# S. aureus MMX 757 = assay: MIC/MBC testing (Example 5); type: cell-based
# [13] = Analysis of intestinal contents, plasma and brains after oral CBD or CBD-glycosides (Example 3); type: in vivo; conditions: mouse, oral gavage; 2 hours; data not shown
# Procedure: In order to investigate the metabolism and decoupling of CBD-glycosides in the large intestine, an aqueous solution of a mixture of CBD-glycosides was administered to a mouse by oral gavage. As a control, a solution of CBD in cremophor, ethanol, and saline was administered to a second mouse. The animals were each sacrificed at 2 hours. Following termination and tissue harvest, the intestinal contents were then extracted and analyzed by C18 reverse phase HPLC. The mice employed in this example were eight week old male Swiss mice fasted for 12 hours prior to administration of the solutions.
# The resulting extracts were analyzed by LCMS performed using a Shimadzu LC-MS 2010 EV. Electrospray ionization (ESI) was performed in negative mode. The column was a Silia Chrom XDB C18 5 um, 150 A, 4.6×50 mm. The method was 12 min 5 to 95 H2O:ACN. Acetic acid and formic acid were used as sample additives during analysis, and the injection volume was 20 μl.
# Pseudomonas aeruginosa [14] = assay: Broth microdilution MIC, aerobic bacteria (Example 1); type: cell-based
# [15] = Example 1 summary of findings, read-out: inhibits the growth (IC50 values)
# [16] = ATCC700057, Example 5, ATCC 700057
# [17] = Enterococcus faecalis, ATCC29212
# [18] = ratios of 1-4 are indicative of bactericidal activity
# [19] = Example 1 summary of findings, read-out: inhibits the growth (IC50)
# [20] = Bifidobacterium longum, MMX3968
structure (smiles),measurement,setting,value
"C=C(C)[C@@H]1CCC(C)=C[C@H]1c1c(O)cc(CCCCC)cc1O [CBD, cannabidiol]",MIC,"Aspergillus fumigatus [1]; 48 h, read-out: MIC at 48 hr",> 128 µg/mL
same,MIC,"Aspergillus fumigatus [1]; Example 4, 24 hr, isolate MMX 5280 (MYA-3626), read-out: MIC at 24 hr",> 128 µg/mL
same,MIC,"Bifidobacterium bifidum; Example 1, isolate MMX 3965, read-out: MIC",2 µg/mL
same,IC50,Bifidobacterium bifidum; [15],2 µg/mL
same,MIC,Bifidobacterium longum [2],64 µg/mL
same,MIC,Escherichia coli [3],> 256 µg/mL
same,MBC:MIC,C. difficile; ATCC 700057,2
same,MBC,C. difficile; [16],32 µg/mL
same,MIC,C. difficile; [16],16 µg/mL
same,MBC,"C. difficile; Example 5, MMX 8330",32 µg/mL
same,MIC,"C. difficile; Example 5, MMX 8330",32 µg/mL
same,MBC,"C. difficile; Example 5, MMX 8333",32 µg/mL
same,MIC,"C. difficile; Example 5, MMX 8333",16 µg/mL
same,MBC:MIC,C. difficile; MMX 8330,1
same,MBC:MIC,C. difficile; MMX 8333,2
same,MIC,Escherichia coli [4],> 128 µg/mL
same,MIC,Lactobacillus jensenii,> 128 µg/mL
same,MIC,"Lactobacillus crispatus; Example 1, isolate MMX 4147, read-out: MIC",2 µg/mL
same,IC50,Lactobacillus crispatus; [15],2 µg/mL
same,MIC,B. fragilis ATCC 25285,16 µg/mL
same,MIC,[5],2 µg/mL
same,MIC,Acinetobacter baumannii; Acinetobacter baumannii,> 256 µg/mL
same,effect on the gram-negative pathogen,"Acinetobacter baumannii; Example 1 summary of findings, Acinetobacter",did not have any effect
same,activity against yeast and fungal isolates,[6],Neither the cannabinoid prodrugs or CBD were active
same,MBC,E. faecalis ATCC 29212; [17],2 µg/mL
same,MIC,E. faecalis ATCC 29212; [17],2 µg/mL
same,MBC:MIC,E. faecalis ATCC 29212; [18],1
same,MIC,"Bifidobacterium longum [7]; Example 1, isolate MMX 3968, read-out: MIC",32 µg/mL
same,IC50,Bifidobacterium longum [7]; [15],32 µg/mL
same,activity against gram-negative aerobic bacteria,gram-negative aerobes,inactive
same,MIC,Bacteroides fragilis; ATCC5285,32 µg/mL
same,IC50,Bacteroides fragilis; [19],32 µg/mL
same,MBC,"E. faecalis MMX 848; Enterococcus faecalis, MMX848",2 µg/mL
same,MIC,"E. faecalis MMX 848; Enterococcus faecalis, MMX848",1 µg/mL
same,MBC:MIC,E. faecalis MMX 848; [18],2
same,MIC,"Clostridium difficile; ATCC700057, Example 4, isolate MMX 4381 (ATCC 700057)",64 µg/mL
same,MIC,"Clostridium difficile; Example 4, isolate MMX 8330",64 µg/mL
same,MIC,"Clostridium difficile; Example 4, isolate MMX 8333",64 µg/mL
same,MIC,"Streptococcus pneumoniae [8]; ATCC49619, Example 1, isolate MMX 1195 (ATCC 49619), read-out: MIC",4 µg/mL
same,IC50,Streptococcus pneumoniae [8]; [19],4 µg/mL
same,MIC,E. coli ATCC 25922,> 256 µg/mL
same,MIC,Pseudomonas aeruginosa [9],> 128 µg/mL
same,precipitation observed (type),[10]; Brucella Broth,none
same,precipitation observed (type),[10]; MHB II,none
same,precipitation observed (type),[10]; MHB II with Blood,none
same,precipitation observed (type),[10]; RPMI,none
same,MIC,"Aspergillus fumigatus [11]; 24 hr, read-out: MIC at 24 hr",> 256 µg/mL
same,MIC,"Aspergillus fumigatus [11]; 48 hr, read-out: MIC at 48 hr",> 256 µg/mL
same,MICs (range over anaerobic bacteria),Anaerobic Bacteria,2 to 64 µg/mL
same,MBC,B. longum MMX 3968; [20],64 µg/mL
same,MIC,B. longum MMX 3968; [20],16 µg/mL
same,MBC:MIC,B. longum MMX 3968; [18],4
same,MIC,Streptococcus pneumoniae [12],4 µg/mL
same,MBC,"S. aureus MMX 757; Staphylococcus aureus, MMX757",1 µg/mL
same,MIC,"S. aureus MMX 757; Staphylococcus aureus, MMX757",1 µg/mL
same,MBC:MIC,S. aureus MMX 757; [18],1
same,presence of CBD in plasma and brains (HPLC),[13],CBD was only present in the control animal that received CBD aglycone
same,effect on the gram-negative pathogen,"Pseudomonas aeruginosa [14]; Example 1 summary of findings, Pseudomonas",did not have any effect
same,MIC,"Pseudomonas aeruginosa [14]; Pseudomonas aeruginosa, Example 1, isolate MMX 1380, read-out: MIC",> 256 µg/mL
